Data: patent US7407973B2, “Use of pirfenidone in therapeutic regimens” (Intermune, Inc., priority 2003, dated 2008)

Tests used:
Experiment in all cases: Enzymatic activity of human kinase in presence of pirfenidone
Format in all cases: biochemical
Details in all cases: percent of control activity in absence of pirfenidone, concentration not given
Ax1 = Ax1 (Homo sapiens, UniProt P30530)
Procedure: (§1) Enzymatic activity of various human kinases was assayed in the presence and the absence of pirfenidone. Percent enzyme activity of various human enzymes in the presence of substrate and pirfenidone are shown in FIGS. 1-5, and in Table 2, below, where “percent enzyme activity” is the percent of the control activity (e.g., in the absence of pirfenidone): […]

Bmx = Bmx (Homo sapiens, UniProt P51813)
Procedure: as §1

CDK1/cyclinB = CDK1/cyclinB (Homo sapiens, UniProt P06493)
Procedure: as §1

CDK2/cyclinA = CDK2/cyclinA (Homo sapiens, UniProt P24941)
Procedure: as §1

CDK7/cyclinH/MAT1 = CDK7/cyclinH/MAT1 (Homo sapiens, UniProt P50613)
Procedure: as §1

CHK2 = CHK2 (Homo sapiens, UniProt O96017)
Procedure: as §1

CK2 = CK2 (Homo sapiens, UniProt P68400)
Procedure: as §1

CaMKIV = CaMKIV (Homo sapiens, UniProt Q16566)
Procedure: as §1

FGFR3 = FGFR3 (Homo sapiens, UniProt P22607)
Sequence of FGFR3 (P22607 23-806): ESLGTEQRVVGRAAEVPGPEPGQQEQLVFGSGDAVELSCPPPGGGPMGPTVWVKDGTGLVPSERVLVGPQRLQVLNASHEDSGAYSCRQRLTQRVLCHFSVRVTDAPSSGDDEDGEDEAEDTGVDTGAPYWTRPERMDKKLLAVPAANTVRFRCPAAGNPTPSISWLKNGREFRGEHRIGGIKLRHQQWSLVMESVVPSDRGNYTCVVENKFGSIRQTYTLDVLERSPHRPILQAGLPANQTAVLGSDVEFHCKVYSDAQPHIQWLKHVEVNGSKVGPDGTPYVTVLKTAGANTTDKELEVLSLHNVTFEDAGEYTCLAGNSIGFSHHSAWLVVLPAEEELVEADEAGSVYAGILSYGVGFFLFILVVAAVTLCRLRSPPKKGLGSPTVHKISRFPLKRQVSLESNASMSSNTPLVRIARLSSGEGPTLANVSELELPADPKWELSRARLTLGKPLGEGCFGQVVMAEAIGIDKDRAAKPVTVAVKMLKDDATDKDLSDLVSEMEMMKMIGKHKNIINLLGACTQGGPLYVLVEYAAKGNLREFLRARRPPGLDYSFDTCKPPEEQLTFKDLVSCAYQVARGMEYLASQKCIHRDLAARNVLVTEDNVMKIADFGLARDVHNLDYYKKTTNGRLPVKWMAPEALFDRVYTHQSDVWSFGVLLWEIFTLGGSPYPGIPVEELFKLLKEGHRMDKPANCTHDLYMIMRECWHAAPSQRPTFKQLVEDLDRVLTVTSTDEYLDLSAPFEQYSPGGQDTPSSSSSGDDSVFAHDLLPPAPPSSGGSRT
Procedure: as §1

Fes = Fes (Homo sapiens, UniProt P07332)
Procedure: as §1

GSK3α = GSK3α (Homo sapiens, UniProt P49840)
Procedure: as §1

IGF-1R = IGF-1R (Homo sapiens, UniProt P08069)
Procedure: as §1

JNK1 = JNK1 (Homo sapiens, UniProt P45983)
Sequence of JNK1 (P45983 whole entry): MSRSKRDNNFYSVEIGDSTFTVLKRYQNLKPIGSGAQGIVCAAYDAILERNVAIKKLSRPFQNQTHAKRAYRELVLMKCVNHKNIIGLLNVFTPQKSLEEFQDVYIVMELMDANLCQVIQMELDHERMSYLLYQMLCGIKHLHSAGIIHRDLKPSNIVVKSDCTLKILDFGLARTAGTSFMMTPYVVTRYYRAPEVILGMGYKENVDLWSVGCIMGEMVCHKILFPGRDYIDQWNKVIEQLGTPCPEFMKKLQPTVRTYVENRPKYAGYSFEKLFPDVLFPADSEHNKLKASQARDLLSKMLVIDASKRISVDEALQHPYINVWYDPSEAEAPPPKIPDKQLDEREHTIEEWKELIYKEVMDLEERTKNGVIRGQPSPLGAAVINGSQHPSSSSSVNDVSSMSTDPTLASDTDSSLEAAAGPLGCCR
Procedure: as §1

JNK2 = JNK2 (Homo sapiens, UniProt P45984)
Sequence of JNK2 (P45984 whole entry): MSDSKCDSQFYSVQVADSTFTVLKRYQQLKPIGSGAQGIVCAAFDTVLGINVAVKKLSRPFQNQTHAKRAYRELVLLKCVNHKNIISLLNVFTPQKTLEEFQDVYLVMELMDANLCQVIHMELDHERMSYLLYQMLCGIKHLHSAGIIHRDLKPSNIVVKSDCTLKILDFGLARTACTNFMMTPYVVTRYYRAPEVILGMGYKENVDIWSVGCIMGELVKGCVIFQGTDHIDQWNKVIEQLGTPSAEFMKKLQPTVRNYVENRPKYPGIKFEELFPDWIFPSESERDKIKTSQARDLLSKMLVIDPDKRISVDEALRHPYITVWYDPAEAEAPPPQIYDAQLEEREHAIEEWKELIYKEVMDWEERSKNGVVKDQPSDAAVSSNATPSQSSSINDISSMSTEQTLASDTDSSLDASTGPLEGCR
Procedure: as §1

JNK3 = JNK3 (Homo sapiens, UniProt P53779)
Sequence of JNK3 (P53779 whole entry): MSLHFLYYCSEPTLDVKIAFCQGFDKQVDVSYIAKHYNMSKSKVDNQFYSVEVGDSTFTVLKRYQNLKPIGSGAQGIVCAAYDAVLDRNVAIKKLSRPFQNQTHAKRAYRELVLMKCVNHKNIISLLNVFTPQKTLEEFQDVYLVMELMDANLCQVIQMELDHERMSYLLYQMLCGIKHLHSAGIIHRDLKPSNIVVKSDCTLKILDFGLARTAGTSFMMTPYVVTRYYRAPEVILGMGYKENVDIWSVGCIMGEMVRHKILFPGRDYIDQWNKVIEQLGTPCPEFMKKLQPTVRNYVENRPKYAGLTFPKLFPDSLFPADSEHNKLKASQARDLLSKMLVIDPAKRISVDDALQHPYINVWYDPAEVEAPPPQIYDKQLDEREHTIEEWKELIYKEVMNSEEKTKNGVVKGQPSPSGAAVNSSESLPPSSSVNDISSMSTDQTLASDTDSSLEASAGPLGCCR
Procedure: as §1

Lck = Lck (Homo sapiens, UniProt P06239)
Procedure: as §1

Lyn = Lyn (Homo sapiens, UniProt P07948)
Sequence of Lyn (P07948 whole entry): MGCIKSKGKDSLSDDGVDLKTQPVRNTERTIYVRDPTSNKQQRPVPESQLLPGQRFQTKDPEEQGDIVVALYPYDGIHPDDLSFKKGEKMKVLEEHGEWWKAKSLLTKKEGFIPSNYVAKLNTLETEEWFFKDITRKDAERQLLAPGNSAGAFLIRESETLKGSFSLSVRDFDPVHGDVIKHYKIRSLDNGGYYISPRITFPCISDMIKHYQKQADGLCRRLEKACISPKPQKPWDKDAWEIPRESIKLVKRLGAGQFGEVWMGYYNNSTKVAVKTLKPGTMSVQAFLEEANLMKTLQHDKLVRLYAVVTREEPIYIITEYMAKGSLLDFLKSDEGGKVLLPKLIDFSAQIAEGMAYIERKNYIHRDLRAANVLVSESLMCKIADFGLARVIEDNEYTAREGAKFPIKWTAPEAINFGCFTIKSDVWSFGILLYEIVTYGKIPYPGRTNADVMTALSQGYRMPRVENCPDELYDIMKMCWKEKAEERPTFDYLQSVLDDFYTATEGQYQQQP
Procedure: as §1

MAPK1 (Homo sapiens) = tested on: MAPK1 (Homo sapiens)
Sequence of MAPK1 (Homo sapiens) (P27361 whole entry): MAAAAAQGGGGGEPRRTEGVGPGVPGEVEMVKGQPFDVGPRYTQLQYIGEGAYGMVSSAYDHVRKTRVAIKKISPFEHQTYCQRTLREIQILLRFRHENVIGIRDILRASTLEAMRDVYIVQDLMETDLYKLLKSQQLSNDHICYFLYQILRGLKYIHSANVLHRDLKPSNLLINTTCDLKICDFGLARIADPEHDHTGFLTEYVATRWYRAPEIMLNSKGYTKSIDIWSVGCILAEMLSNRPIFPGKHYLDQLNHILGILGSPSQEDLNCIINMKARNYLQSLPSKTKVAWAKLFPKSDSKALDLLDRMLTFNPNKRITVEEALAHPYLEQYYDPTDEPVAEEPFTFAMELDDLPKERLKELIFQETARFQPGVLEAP
Procedure: as §1

MAPK2 = MAPK2 (Homo sapiens, UniProt P28482)
Procedure: as §1

MSK1 = MSK1 (Homo sapiens, UniProt O75582)
Sequence of MSK1 (O75582 whole entry): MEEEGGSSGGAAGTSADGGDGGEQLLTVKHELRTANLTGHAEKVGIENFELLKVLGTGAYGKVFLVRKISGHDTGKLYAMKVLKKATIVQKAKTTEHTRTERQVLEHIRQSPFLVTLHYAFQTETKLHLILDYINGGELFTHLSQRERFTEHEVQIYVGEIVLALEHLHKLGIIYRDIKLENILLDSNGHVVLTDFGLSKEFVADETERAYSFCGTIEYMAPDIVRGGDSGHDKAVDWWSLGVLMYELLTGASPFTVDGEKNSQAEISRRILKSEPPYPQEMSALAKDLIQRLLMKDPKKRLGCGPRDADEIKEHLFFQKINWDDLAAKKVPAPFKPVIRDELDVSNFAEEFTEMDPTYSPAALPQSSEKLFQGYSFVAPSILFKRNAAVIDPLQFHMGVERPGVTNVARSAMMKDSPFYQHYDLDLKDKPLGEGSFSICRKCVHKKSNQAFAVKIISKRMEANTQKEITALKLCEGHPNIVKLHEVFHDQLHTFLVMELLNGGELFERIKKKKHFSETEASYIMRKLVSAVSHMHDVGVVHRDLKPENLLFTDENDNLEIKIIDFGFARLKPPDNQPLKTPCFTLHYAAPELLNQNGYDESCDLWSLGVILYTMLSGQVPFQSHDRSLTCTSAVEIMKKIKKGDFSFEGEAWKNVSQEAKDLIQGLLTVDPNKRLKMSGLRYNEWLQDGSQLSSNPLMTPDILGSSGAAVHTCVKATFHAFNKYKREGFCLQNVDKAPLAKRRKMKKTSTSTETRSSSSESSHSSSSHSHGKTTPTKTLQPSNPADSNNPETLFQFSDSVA
Procedure: as §1

PDGFR = PDGFR (Homo sapiens, UniProt P16234)
Procedure: as §1

PDGFRβ = PDGFRβ (Homo sapiens, UniProt P09619)
Procedure: as §1

PDK1 = PDK1 (Homo sapiens, UniProt O15530)
Procedure: as §1

PKA = PKA (Homo sapiens, UniProt P17612)
Procedure: as §1

PKBα = PKBα (Homo sapiens, UniProt P31749)
Procedure: as §1

PKBβ = PKBβ (Homo sapiens, UniProt P31751)
Procedure: as §1

PKBγ = PKBγ (Homo sapiens, UniProt Q9Y243)
Sequence of PKBγ (Q9Y243 whole entry): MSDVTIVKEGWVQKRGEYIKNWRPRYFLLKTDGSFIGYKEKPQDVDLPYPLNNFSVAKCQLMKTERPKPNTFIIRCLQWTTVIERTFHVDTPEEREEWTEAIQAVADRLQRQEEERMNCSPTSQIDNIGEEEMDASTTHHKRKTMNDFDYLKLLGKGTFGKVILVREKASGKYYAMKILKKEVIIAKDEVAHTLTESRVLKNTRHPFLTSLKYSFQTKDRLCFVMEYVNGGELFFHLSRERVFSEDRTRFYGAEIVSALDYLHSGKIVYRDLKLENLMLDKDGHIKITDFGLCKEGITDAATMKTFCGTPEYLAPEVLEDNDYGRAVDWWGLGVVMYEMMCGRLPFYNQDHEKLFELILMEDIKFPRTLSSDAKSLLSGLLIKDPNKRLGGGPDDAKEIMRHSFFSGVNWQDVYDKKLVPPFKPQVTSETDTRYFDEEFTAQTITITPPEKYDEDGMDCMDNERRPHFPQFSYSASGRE
Procedure: as §1

PKCα = PKCα (Homo sapiens, UniProt P17252)
Procedure: as §1

PKCμ = PKCμ (Homo sapiens, UniProt Q15139)
Procedure: as §1

PRAK = PRAK (Homo sapiens, UniProt Q8IW41)
Procedure: as §1

PRK2 = PRK2 (Homo sapiens, UniProt Q16513)
Procedure: as §1

ROCK-II = ROCK-II (Homo sapiens, UniProt O75116)
Sequence of ROCK-II (O75116 11-552 limits assumed): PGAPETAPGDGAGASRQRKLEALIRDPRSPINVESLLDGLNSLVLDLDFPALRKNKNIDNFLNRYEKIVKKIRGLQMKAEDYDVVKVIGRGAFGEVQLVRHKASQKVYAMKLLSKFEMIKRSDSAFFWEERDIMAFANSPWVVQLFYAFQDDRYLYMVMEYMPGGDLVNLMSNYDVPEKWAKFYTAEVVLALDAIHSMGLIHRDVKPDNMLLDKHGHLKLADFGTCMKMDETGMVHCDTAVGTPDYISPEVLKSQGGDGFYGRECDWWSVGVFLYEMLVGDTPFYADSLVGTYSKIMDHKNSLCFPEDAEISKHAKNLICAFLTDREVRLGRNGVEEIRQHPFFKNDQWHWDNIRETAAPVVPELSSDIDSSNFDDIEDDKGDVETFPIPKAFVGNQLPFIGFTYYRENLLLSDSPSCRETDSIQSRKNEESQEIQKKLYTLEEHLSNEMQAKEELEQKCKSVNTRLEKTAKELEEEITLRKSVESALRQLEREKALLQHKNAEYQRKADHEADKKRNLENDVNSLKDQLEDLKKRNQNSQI
Procedure: as §1

Rsk1 = Rsk1 (Homo sapiens, UniProt Q15418)
Procedure: as §1

Rsk2 = Rsk2 (Homo sapiens, UniProt P51812)
Procedure: as §1

Rsk3 = Rsk3 (Homo sapiens, UniProt Q15349)
Procedure: as §1

SAPK2α = SAPK2α (Homo sapiens, UniProt Q16539)
Procedure: as §1

SAPK2β = SAPK2β (Homo sapiens, UniProt Q15759)
Procedure: as §1

SAPK4 = SAPK4 (Homo sapiens, UniProt O15264)
Procedure: as §1

SGK = SGK (Homo sapiens, UniProt O00141)
Procedure: as §1

Syk = Syk (Homo sapiens, UniProt P43405)
Procedure: as §1

Yes = Yes (Homo sapiens, UniProt P07947)
Procedure: as §1

cSRC = cSRC (Homo sapiens, UniProt P12931)
Procedure: as §1

Compound: Cc1ccc(=O)n(-c2ccccc2)c1 [pirfenidone, 5-methyl-1-phenyl-2-(1H)-pyridone]
- % Activity (Ax1): 93%
- % Activity (Bmx): 86%
- % Activity (CDK1/cyclinB): 102%
- % Activity (CDK2/cyclinA): 92%
- % Activity (CDK7/cyclinH/MAT1): 95%
- % Activity (CHK2): 84%
- % Activity (CK2): 94%
- % Activity (CaMKIV): 107%
- % Activity (FGFR3): 104%
- % Activity (Fes): 88%
- % Activity (GSK3α): 91%
- % Activity (IGF-1R): 92%
- % Activity (JNK1): 105%
- % Activity (JNK2): 97%
- % Activity (JNK3): 106%
- % Activity (Lck): 104%
- % Activity (Lyn): 92%
- % Activity (MAPK1 (Homo sapiens)): 98%
- % Activity (MAPK2): 100%
- % Activity (MSK1): 93%
- % Activity (PDGFR): 101%
- % Activity (PDGFRβ): 101%
- % Activity (PDK1): 93%
- % Activity (PKA): 109%
- % Activity (PKBα): 88%
- % Activity (PKBβ): 88%
- % Activity (PKBγ): 111%
- % Activity (PKCα): 94%
- % Activity (PKCμ): 96%
- % Activity (PRAK): 90%
- % Activity (PRK2): 90%
- % Activity (ROCK-II): 90%
- % Activity (Rsk1): 88%
- % Activity (Rsk2): 99%
- % Activity (Rsk3): 115%
- % Activity (SAPK2α): 70%
- % Activity (SAPK2β): 74%
- % Activity (SAPK4): 98%
- % Activity (SGK): 106%
- % Activity (Syk): 78%
- % Activity (Yes): 104%
- % Activity (cSRC): 91%
